Here are results for two compounds from publication PMC4322620 (Frontiers in Pharmacology, 2015).

Series [1] deals with cell-surface neurotensin receptors (HT-29 cells) (Homo sapiens, UniProt P30989). It counts as cell-based.
The next series has as its target NTS1 (HT-29 cells) (Homo sapiens, UniProt P30989). The series can be described thus: cell-based.
The target of series [2] is neurotensin receptors (HT-29 cells) (Homo sapiens, UniProt P30989). Type of series: cell-based.
Series [3] can be described thus: in vitro. Conditions: mouse, other tissue homogenate.
The nature of series [4]: in vitro. Conditions: rat, serum.
A further series deals with motor impairment. Conditions: mouse, in vivo.

Structures are written as SMILES. Where a SMILES comes first, the peptide text is derived from it. [ ]: non-standard residue; d: D form. The star is where a group is joined. X1 = CC(=O)N[C@@H]1[C@@H](O[C@@H]2O[C@H](CO)[C@H](O)[C@H](O)[C@H]2O)[C@@H](O)[C@@H](CO)O[C@@H]1*; X2 = CC12CC3CC(C)(C1)CC(N*)(C3)C2; pGlu = O=C1CC[C@@H](C(=O)O)N1

Chain of neurotensin receptors (HT-29 cells) (P30989 whole entry, looked up): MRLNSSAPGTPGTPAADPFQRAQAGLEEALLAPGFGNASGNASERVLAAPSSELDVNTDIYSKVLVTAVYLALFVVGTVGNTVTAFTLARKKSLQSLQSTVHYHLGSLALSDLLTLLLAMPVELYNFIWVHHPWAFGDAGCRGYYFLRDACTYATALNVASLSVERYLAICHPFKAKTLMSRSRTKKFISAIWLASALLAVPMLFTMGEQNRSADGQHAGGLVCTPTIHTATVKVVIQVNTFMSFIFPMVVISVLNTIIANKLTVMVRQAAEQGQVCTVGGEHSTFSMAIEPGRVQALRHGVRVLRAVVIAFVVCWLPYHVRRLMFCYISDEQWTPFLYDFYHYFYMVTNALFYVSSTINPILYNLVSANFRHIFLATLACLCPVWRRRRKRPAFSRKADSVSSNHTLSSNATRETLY
Chain of cell-surface neurotensin receptors (HT-29 cells) (P30989 whole entry, looked up): as above
Chain of NTS1 (HT-29 cells) (P30989 whole entry, looked up): as above

On to `CC[C@H](C)[C@H](NC(=O)[C@H](Cc1ccc(O)cc1)NC(=O)[C@@H]1CCCN1C(=O)[C@H](CCCCN)NC(=O)[C@H](CCCCN)NC(=O)[C@@H](NC(=O)[C@H](C)NC(=O)[C@H](CC(N)=O)NC(=O)[C@H](CO)NC(=O)CNC(=O)CNC(=O)[C@H](CCC(=O)O)NC(=O)[C@H](CCC(=O)O)NC(=O)[C@H](CO)NC(=O)[C@@H]1CCC(=O)N1)[C@@H](C)O[C@H]1O[C@H](CO)[C@H](O)[C@H](O[C@@H]2O[C@H](CO)[C@H](O)[C@H](O)[C@H]2O)[C@H]1NC(C)=O)C(=O)N[C@@H](CC(C)C)C(=O)O` [Contulakin-G] ([pGlu]SEEGGSNAT(X1)KKPYIL-OH), for which, in series [1], the “levels of cell-surface neurotensin receptors after agonist exposure” value is listed as “significantly higher levels”. Besides, the EC50 on NTS1 (HT-29 cells) was found to be 32.4 ± 14.5 nM. In addition, in series [2], the DC50 was 444 ± 41 nM and the DC50/EC50 was 14. In “in vitro [3]”, this compound registered a half-life greater than 160 min. The half-life in “in vitro [4]” is greater than 960 min.
Regarding `CC[C@H](C)[C@H](NC(=O)[C@H](Cc1ccc(O)cc1)NC(=O)[C@@H]1CCCN1C(=O)[C@H](CCCCN)NC(=O)[C@H](CCCCN)NC(=O)[C@H](CCC(=O)NC12CC3CC(C)(CC(C)(C3)C1)C2)NC(=O)[C@H](CCCCN)NC(=O)[C@H](CC(N)=O)NC(=O)[C@H](CO)NC(=O)CNC(=O)CNC(=O)[C@H](CCC(=O)O)NC(=O)[C@H](CCC(=O)O)NC(=O)[C@H](CO)NC(=O)[C@@H]1CCC(=O)N1)C(=O)N[C@@H](CC(C)C)C(=O)O` [memantine-Contulakin-G] ([pGlu]SEEGGSNKE(X2)KKPYIL-OH), in the series with motor impairment, the rotorod toxicity entry is listed as “no rotorod toxicity”.
